From patent publication US20080312223A1, “Thiazole And Isothiazole Derivatives That Modulate The Activity Of CDK, GSK And Aurora Kinases” (ASTEX THERAPEUTICS LIMITED, priority 2004, published 2008) come the findings set out here.

The test system of one assay is HCT-116 cell line. Briefly: Anti-proliferative activity, Alamar Blue assay. In kind it is cell-based. Conditions: Homo sapiens, read-out: IC50 against the HCT-116 cell line. How it is done: The anti-proliferative activities of compounds of the invention can be determined by measuring the ability of the compounds to inhibition of cell growth in a number of cell lines. Inhibition of cell growth is measured using the Alamar Blue assay (Nociari, M. M, Shalev, A., Benias, P., Russo, C. Journal of Immunological Methods 1998, 213, 157-167). The method is based on the ability of viable cells to reduce resazurin to its fluorescent product resorufin. For each proliferation assay cells are plated onto 96 well plates and allowed to recover for 16 hours prior to the addition of inhibitor compounds for a further 72 hours. At the end of the incubation period 10% (v/v) Alamar Blue is added and incubated for a further 6 hours prior to determination of fluorescent product at […]. In the case of the non-proliferating cell assay cells are maintained at confluence for 96 hour prior to the addition of inhibitor compounds for a further 72 hours. The number of viable cells is determined by Alamar Blue assay as before. In addition, any morphological changes are recorded. All cell lines can be obtained from ECACC (European Collection of cell Cultures).
In particular, compounds of the invention were tested against the HCT-116 cell line (ECACC Reference: 91091005) derived from human colon carcinoma.

The target of another assay is T1, CDK1/CyclinB (Homo sapiens, UniProt P06493).
T1 construct: purchased Upstate Discovery
T1 sequence (P06493 whole entry): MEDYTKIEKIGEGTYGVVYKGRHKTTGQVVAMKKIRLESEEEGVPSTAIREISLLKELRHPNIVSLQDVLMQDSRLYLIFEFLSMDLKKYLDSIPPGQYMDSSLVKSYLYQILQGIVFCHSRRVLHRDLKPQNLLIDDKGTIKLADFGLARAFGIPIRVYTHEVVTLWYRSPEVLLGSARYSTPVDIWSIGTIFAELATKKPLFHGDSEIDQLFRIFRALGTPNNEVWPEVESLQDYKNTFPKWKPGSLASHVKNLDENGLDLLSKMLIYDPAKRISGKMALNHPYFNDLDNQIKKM
T1 sequence (P14635 whole entry partner): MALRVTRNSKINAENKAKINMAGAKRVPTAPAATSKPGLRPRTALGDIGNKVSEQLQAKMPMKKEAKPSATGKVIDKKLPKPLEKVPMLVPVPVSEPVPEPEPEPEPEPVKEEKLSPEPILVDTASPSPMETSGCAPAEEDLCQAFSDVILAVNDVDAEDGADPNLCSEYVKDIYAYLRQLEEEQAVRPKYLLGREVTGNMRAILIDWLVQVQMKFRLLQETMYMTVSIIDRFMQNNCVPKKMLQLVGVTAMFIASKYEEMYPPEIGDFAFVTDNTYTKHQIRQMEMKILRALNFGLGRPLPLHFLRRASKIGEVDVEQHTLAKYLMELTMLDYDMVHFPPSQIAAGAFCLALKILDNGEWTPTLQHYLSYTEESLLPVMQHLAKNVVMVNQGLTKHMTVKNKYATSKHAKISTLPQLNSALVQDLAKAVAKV
Briefly: Activated CDK1/CyclinB kinase inhibitory activity assay. In kind it is biochemical. Conditions: Example 11, read-out: IC50 in the CDK2 assay (stated under the CDK1/CyclinB assay, Example 11). How it is done: (§1) Activated CDK2/CyclinA (Brown et al, Nat. Cell Biol., 1, pp 438-443, 1999; Lowe, E. D., et al Biochemistry, 41, pp 15625-15634, 2002) is diluted to 125 pM in 2.5× strength assay buffer (50 mM MOPS pH 7.2, 62.5 mM β-glycerophosphate, 12.5 mM EDTA, 37.5 mM MgCl2, […], 2.5 mM DTT, 2.5 mM sodium orthovanadate, 0.25 mg/ml bovine serum albumin), and 10 μl mixed with 10 μl of histone substrate mix (60 μl bovine histone H1 (Upstate Biotechnology, 5 mg/ml), 940 μl H2O, 35 μCi γ^33P-ATP) and added to 96 well plates along with 5 μl of various dilutions of the test compound in DMSO (up to 2.5%). The reaction is allowed to proceed for 2 to 4 hours before being stopped with an excess of ortho-phosphoric acid (5 μl at 2%).
γ^33P-ATP which remains unincorporated into the histone H1 is separated from phosphorylated histone H1 on a Millipore MAPH filter plate. The wells of the MAPH plate are wetted with 0.5% orthophosphoric acid, and then the results of the reaction are filtered with a Millipore vacuum filtration unit through the wells. Following filtration, the residue is washed twice with 200 μl of 0.5% orthophosphoric acid. Once the filters have dried, 20 μl of Microscint 20 scintillant is added, and then counted on a Packard Topcount for 30 seconds. The % inhibition of the CDK2 activity is calculated and plotted in order to determine the concentration of test compound required to inhibit 50% of the CDK2 activity (IC50).
CDK1/CyclinB assay.is identical to the CDK2/CyclinA above except that CDK1/CyclinB (Upstate Discovery) is used and the enzyme is diluted to 6.25 nM.

Another assay addresses Activated CDK2/CyclinA (Homo sapiens, UniProt P24941). Kind of assay: Activated CDK2/CyclinA kinase inhibitory activity assay. The note with it: Example 10. In kind it is biochemical. The method, then: as §1
γ^33P-ATP which remains unincorporated into the histone H1 is separated from phosphorylated histone H1 on a Millipore MAPH filter plate. The wells of the MAPH plate are wetted with 0.5% orthophosphoric acid, and then the results of the reaction are filtered with a Millipore vacuum filtration unit through the wells. Following filtration, the residue is washed twice with 200 μl of 0.5% orthophosphoric acid. Once the filters have dried, 20 μl of Microscint 20 scintillant is added, and then counted on a Packard Topcount for 30 seconds. […]

For another assay, the target named is T2, AuroraB (Homo sapiens, UniProt Q96GD4).
T2 construct: purchased ProQinase
T2 sequence (Q96GD4 whole entry): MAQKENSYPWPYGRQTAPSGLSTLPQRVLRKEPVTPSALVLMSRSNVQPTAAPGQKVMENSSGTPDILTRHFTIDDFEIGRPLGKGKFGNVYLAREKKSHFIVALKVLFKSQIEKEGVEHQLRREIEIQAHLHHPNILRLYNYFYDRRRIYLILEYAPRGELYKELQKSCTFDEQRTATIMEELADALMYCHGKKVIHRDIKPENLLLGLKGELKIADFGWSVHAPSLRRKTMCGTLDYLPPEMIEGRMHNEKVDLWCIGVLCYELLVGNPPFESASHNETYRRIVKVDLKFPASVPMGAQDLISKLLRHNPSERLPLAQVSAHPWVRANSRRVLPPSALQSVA
Briefly: Aurora B kinase assay (DELFIA). In kind it is biochemical. The note with it: 15 μM ATP. How it is done:
Aurora activity was determined using a Dissociative Enhanced Lanthanide Fluoro Immuno Assay (DELFIA) with a GSK3-derived biotinylated peptide. The amount of phosphorylated peptide produced is quantified by means of a phospho-specific primary antibody and europium-labelled anti-rabbit IgG antibody using time-resolved fluorescence at λex=337 nm, λem=620 nm.
Assay reactions are set up in 96 well plates in a total reaction volume of 25 μl with 5 nM AuroraB (ProQinase), 3 μM Biotin-[…], 15 μM ATP and various dilutions of compound in 25 mM TRIS pH 8.5, 0.1 mg/ml BSA, 0.025% Surfact-Amps 20, 5 mM MgCl2, 1 mM DTT, & 2.5% DMSO. The reaction is allowed to proceed for 90 minutes at room temperature before stopping with 100 μl STOP buffer containing 100 mM EDTA, 0.05% Surfact-amps20 (Pierce) and 1× Blocker™ BSA in TBS (Pierce).
The detection step was carried out as described for AuroraA.

The target in the next assay is GSK3β (human) (Homo sapiens, UniProt P49841). Kind of assay: Inhibitory activity against Glycogen Synthase Kinase-3. In kind it is biochemical. The method, then:
GSK3β (human) is diluted to a 10× working stock in 50 mM Tris pH 7.5, 0.1 mM EGTA, 0.1 mM sodium vanadate, 0.1% β-mercaptoethanol, 1 mg/ml BSA. One unit equals the incorporation of 1 nmol of phosphate per minute phospho-glycogen synthase peptide 2 per minute.
In a final reaction volume of 25 μl, GSK3β (5-10 mU) is incubated with 8 mM MOPS 7.0, 0.2 mM EDTA, 20 μM […](p)EDEEE (phospho GS2 peptide), 10 mM MgAcetate and [γ-^33P-ATP] (specific activity approx 500 cpm/pmol, concentration as required). The reaction is initiated by the addition of Mg^2+[γ-^33P-ATP]. After incubation for 40 minutes at room temperature the reaction is stopped by the addition of 5 μl of a 3% phosphoric acid solution. 10 μl of the reaction is spotted onto a P30 filter mat and washed 3 times for 5 minutes in 50 mM phosphoric acid and once in methanol prior to drying and counting.

Where two headings read alike, the source gives them in different places.

Chain of GSK3β (human) (P49841 whole entry): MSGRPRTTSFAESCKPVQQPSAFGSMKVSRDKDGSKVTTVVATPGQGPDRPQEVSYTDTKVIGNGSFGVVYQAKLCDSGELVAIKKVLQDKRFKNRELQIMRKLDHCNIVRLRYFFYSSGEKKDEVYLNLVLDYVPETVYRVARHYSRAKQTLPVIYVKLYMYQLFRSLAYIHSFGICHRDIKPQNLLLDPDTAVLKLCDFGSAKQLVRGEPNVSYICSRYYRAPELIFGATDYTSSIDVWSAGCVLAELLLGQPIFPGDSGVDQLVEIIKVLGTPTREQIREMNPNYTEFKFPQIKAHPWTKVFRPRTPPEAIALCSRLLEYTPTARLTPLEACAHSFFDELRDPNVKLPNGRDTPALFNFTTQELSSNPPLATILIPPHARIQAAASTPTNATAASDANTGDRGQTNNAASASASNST

`O=C(Nc1scnc1-c1nc2ccc(CN3CCOCC3)cc2[nH]1)c1c(F)cccc1F` [Example 2, 2,6-difluoro-N-[4-(6-morpholin-4ylmethyl-1H-benzoimidazol-2-yl)-thiazol-5-yl]benzamide]: the IC50 was < 1 µM in the assay with HCT-116 cell line (HCT-116, 72 hours, Alamar Blue); < 10 µM on CDK1/CyclinB; < 10 µM against Activated CDK2/CyclinA.

As for `O=C(Nc1csnc1-c1nc2cc(CN3CCOCC3)ccc2[nH]1)c1c(F)cccc1F` [Example 3, 2,6-difluoro-N-[3-(5-morpholin-4-ylmethyl-1H-benzoimidazol-2-yl)-isothiazol-4-yl]-benzamide], the IC50 in the assay on HCT-116 cell line (HCT-116, 72 h) is < 15 µM; on CDK1/CyclinB it was < 10 µM.

Consider `O=C(Nc1scnc1-c1nc2ccccc2[nH]1)c1c(F)cccc1F` [Example 1, N-[4-(1H-benzoimidazol-2-yl)-thiazol-5-yl]-2,6-difluoro-benzamide], for which the IC50 with HCT-116 cell line (HCT-116, 72 hours, Alamar Blue) is < 15 µM; on CDK1/CyclinB, < 10 µM; against AuroraB, < 0.1 µM; on GSK3β (human) it was < 1 µM; against Activated CDK2/CyclinA, < 10 µM.
